The compounds below were run on recombinant NL4-3 virus (Renilla luciferase in nef, Gag P373S; NLRluc) in MT-2 cells (assay: whole plant or invertebrate). Conditions: Renilla, NL43, luciferase activity in cells infected for 4-5 days with NLRluc recombinants, serial dilutions of inhibitor; class symbols (key in Table 1); read-out: EC50.
Type: cell-based, HIV
Outline: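 MT-2 cells in RPMI 1640 with 10% heat-inactivated FBS were infected with the reporter virus, made by transfecting the proviral clone into 293T cells, and cultured 4-5 days with serial inhibitor dilutions. Antiviral activity was quantified from Renilla luciferase activity measured in lysed cells.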

For `C=C(C)[C@@H]1CC[C@]2(NC(=O)C(c3ccccc3)N3CCS(=O)(=O)CC3)CC[C@]3(C)[C@H](CC[C@@H]4[C@@]5(C)CC=C(c6ccc(C(=O)O)cc6)C(C)(C)[C@@H]5CC[C@]43C)[C@@H]12` (single isomer, unassigned) [Example 91], which EC50 is on record?
The EC50 was < 0.1 µM.

For `C=C(C)[C@@H]1CC[C@]2(NCC(=O)NC(C)C)CC[C@]3(C)[C@H](CC[C@@H]4[C@@]5(C)CC=C(c6ccc(C(=O)O)cc6)C(C)(C)[C@@H]5CC[C@]43C)[C@@H]12` [Example 150, 4-((1R,3aS,5aR,5bR,7aR,11aS,11bR,13aR,13bR)-3a-(2-(isopropylamino)-2-oxoethylamino)-5a,5b,8,8,11a-pentamethyl-1-(prop-1-en-2-yl)-2,3,3a,4,5,5a,5b,6,7,7a,8,11,11a,11b,12,13,13a,13b-octadecahydro-1H-cyclopenta[a]chrysen-9-yl)benzoic acid], which EC50 is on record?
The EC50 was < 0.1 µM.

For `C=C(C)[C@@H]1CC[C@]2(NC(=O)N3CCN(C)CC3)CC[C@]3(C)[C@H](CC[C@@H]4[C@@]5(C)CC=C(c6ccc(C(=O)O)cc6)C(C)(C)[C@@H]5CC[C@]43C)[C@@H]12` [Example 54, 4-((1R,3aS,5aR,5bR,7aR,11aS,11bR,13aR,13bR)-5a,5b,8,8,11a-pentamethyl-3a-(4-methylpiperazine-1-carboxamido)-1-(prop-1-en-2-yl)-2,3,3a,4,5,5a,5b,6,7,7a,8,11,11a,11b,12,13,13a,13b-octadecahydro-1H-cyclopenta[a]chrysen-9-yl)benzoic acid], which EC50 is on record?
Its EC50 is < 0.1 µM.

With `C=C(C)[C@@H]1CC[C@]2(NC(=O)C(=O)Nc3nccs3)CC[C@]3(C)[C@H](CC[C@@H]4[C@@]5(C)CC=C(c6ccc(C(=O)O)cc6)C(C)(C)[C@@H]5CC[C@]43C)[C@@H]12` [Example 79, 4-((1R,3aS,5aR,5bR,7aR,11aS,11bR,13aR,13bR)-5a,5b,8,8,11a-pentamethyl-3a-(2-oxo-2-(thiazol-2-ylamino)acetamido)-1-(prop-1-en-2-yl)-2,3,3a,4,5,5a,5b,6,7,7a,8,11,11a,11b,12,13,13a,13b-octadecahydro-1H-cyclopenta[a]chrysen-9-yl)benzoic acid] as the compound, how does the EC50 read?
Its EC50 is < 0.1 µM.

How did the EC50 turn out when `C=C(C)[C@@H]1CC[C@]2(NC(=O)Cn3ccnn3)CC[C@]3(C)[C@H](CC[C@@H]4[C@@]5(C)CC=C(c6ccc(C(=O)O)cc6)C(C)(C)[C@@H]5CC[C@]43C)[C@@H]12` [Example 88, 4-((1R,3aS,5aR,5bR,7aR,11aS,11bR,13aR,13bR)-3a-(2-(1H-1,2,3-triazol-1-yl)acetamido)-5a,5b,8,8,11a-pentamethyl-1-(prop-1-en-2-yl)-2,3,3a,4,5,5a,5b,6,7,7a,8,11,11a,11b,12,13,13a,13b-octadecahydro-1H-cyclopenta[a]chrysen-9-yl)benzoic acid] was run?
The EC50 was < 0.1 µM.

How did the EC50 turn out when `C=C(C)[C@@H]1CC[C@]2(NC(=O)NCCN3CCCCC3=O)CC[C@]3(C)[C@H](CC[C@@H]4[C@@]5(C)CC=C(c6ccc(C(=O)O)cc6)C(C)(C)[C@@H]5CC[C@]43C)[C@@H]12` [Example 27, 4-((1R,3aS,5aR,5bR,7aR,11aS,11bR,13aR,13bR)-5a,5b,8,8,11a-pentamethyl-3a-(3-(2-(2-oxopiperidin-1-yl)ethyl)ureido)-1-(prop-1-en-2-yl)-2,3,3a,4,5,5a,5b,6,7,7a,8,11,11a,11b,12,13,13a,13b-octadecahydro-1H-cyclopenta[a]chrysen-9-yl)benzoic acid] was run?
The EC50 was < 0.1 µM.

How did the EC50 turn out when `C=C(C)[C@@H]1CC[C@]2(NCCN3CCCC3=O)CC[C@]3(C)[C@H](CC[C@@H]4[C@@]5(C)CC=C(c6ccc(C(=O)O)cc6)C(C)(C)[C@@H]5CC[C@]43C)[C@@H]12` [Example 146, 4-((1R,3aS,5aR,5bR,7aR,11aS,11bR,13aR,13bR)-5a,5b,8,8,11a-pentamethyl-3a-(2-(2-oxopyrrolidin-1-yl)ethylamino)-1-(prop-1-en-2-yl)-2,3,3a,4,5,5a,5b,6,7,7a,8,11,11a,11b,12,13,13a,13b-octadecahydro-1H-cyclopenta[a]chrysen-9-yl)benzoic acid] was run?
Its EC50 is < 0.1 µM.

`C=C(C)[C@@H]1CC[C@]2(NC(=O)NCCNS(C)(=O)=O)CC[C@]3(C)[C@H](CC[C@@H]4[C@@]5(C)CC=C(c6ccc(C(=O)O)cc6)C(C)(C)[C@@H]5CC[C@]43C)[C@@H]12` [Example 47, 4-((1R,3aS,5aR,5bR,7aR,11aS,11bR,13aR,13bR)-5a,5b,8,8,11a-pentamethyl-3a-(3-(2-(methylsulfonamido)ethyl)ureido)-1-(prop-1-en-2-yl)-2,3,3a,4,5,5a,5b,6,7,7a,8,11,11a,11b,12,13,13a,13b-octadecahydro-1H-cyclopenta[a]chrysen-9-yl)benzoic acid] was tested. Which EC50 did it give?
Its EC50 is < 0.1 µM.

With `C=C(C)[C@@H]1CC[C@]2(NCCF)CC[C@]3(C)[C@H](CC[C@@H]4[C@@]5(C)CC=C(c6ccc(C(=O)O)cc6)C(C)(C)[C@@H]5CC[C@]43C)[C@@H]12` [Example 179, 4-((1R,3aS,5aR,5bR,7aR,11aS,11bR,13aR,13bR)-3a-((2-fluoroethyl)amino)-5a,5b,8,8,11a-pentamethyl-1-(prop-1-en-2-yl)-2,3,3a,4,5,5a,5b,6,7,7a,8,11,11a,11b,12,13,13a,13b-octadecahydro-1H-cyclopenta[a]chrysen-9-yl)benzoic acid] as the compound, how does the EC50 read?
Its EC50 is < 0.1 µM.

Which EC50 does the source give for `C=C(C)[C@@H]1CC[C@]2(NC(=O)C(CC)NC3CCS(=O)(=O)C3)CC[C@]3(C)[C@H](CC[C@@H]4[C@@]5(C)CC=C(c6ccc(C(=O)O)cc6)C(C)(C)[C@@H]5CC[C@]43C)[C@@H]12` (stereo partly drawn) [Example 116, benzoic acid, 4-[(1R,3aS,5aR,5bR,7aR,11aS,11bR,13aR,13bR)-2,3,3a,4,5,5a,5b,6,7,7a,8,11,11a,11b,12,13,13a,13b-octadecahydro-5a,5b,8,8,11a-pentamethyl-1-(1-methylethenyl)-3a-[[1-oxo-2-[(tetrahydro-1,1-dioxido-3-thienyl)amino]butyl]amino]-1H-cyclopenta[a]chrysen-9-yl]] here?
Its EC50 is < 0.1 µM.

With `C=C(C)[C@@H]1CC[C@]2(NCCCN3CCOCC3)CC[C@]3(C)[C@H](CC[C@@H]4[C@@]5(C)CC=C(c6ccc(C(=O)O)cc6)C(C)(C)[C@@H]5CC[C@]43C)[C@@H]12` [Example 165, 4-((1R,3aS,5aR,5bR,7aR,11aS,11bR,13aR,13bR)-5a,5b,8,8,11a-pentamethyl-3a-(3-morpholinopropylamino)-1-(prop-1-en-2-yl)-2,3,3a,4,5,5a,5b,6,7,7a,8,11,11a,11b,12,13,13a,13b-octadecahydro-1H-cyclopenta[a]chrysen-9-yl)benzoic acid] as the compound, how does the EC50 read?
The EC50 was < 0.1 µM.

How did the EC50 turn out when `C=C(C)[C@@H]1CC[C@]2(NC(=O)NCCCCCN(C)C)CC[C@]3(C)[C@H](CC[C@@H]4[C@@]5(C)CC=C(c6ccc(C(=O)O)cc6)C(C)(C)[C@@H]5CC[C@]43C)[C@@H]12` [Example 60, 4-((1R,3aS,5aR,5bR,7aR,11aS,11bR,13aR,13bR)-3a-(3-(5-(dimethylamino)pentyl)ureido)-5a,5b,8,8,11a-pentamethyl-1-(prop-1-en-2-yl)-2,3,3a,4,5,5a,5b,6,7,7a,8,11,11a,11b,12,13,13a,13b-octadecahydro-1H-cyclopenta[a]chrysen-9-yl)benzoic acid] was run?
The EC50 was < 0.1 µM.

With `C=C(C)[C@@H]1CC[C@]2(NC(=O)NCC(=O)O)CC[C@]3(C)[C@H](CC[C@@H]4[C@@]5(C)CC=C(c6ccc(C(=O)O)cc6)C(C)(C)[C@@H]5CC[C@]43C)[C@@H]12` [Example 16, 4-((1R,3aS,5aR,5bR,7aR,11aS,11bR,13aR,13bR)-3a-(3-(carboxymethyl)ureido)-5a,5b,8,8,11a-pentamethyl-1-(prop-1-en-2-yl)-2,3,3a,4,5,5a,5b,6,7,7a,8,11,11a,11b,12,13,13a,13b-octadecahydro-1H-cyclopenta[a]chrysen-9-yl)benzoic acid] as the compound, how does the EC50 read?
Its EC50 is < 0.1 µM.

Which EC50 does the source give for `C=C(C)[C@@H]1CC[C@]2(NCCN3CCN(C(=O)CC)CC3)CC[C@]3(C)[C@H](CC[C@@H]4[C@@]5(C)CC=C(c6ccc(C(=O)O)cc6)C(C)(C)[C@@H]5CC[C@]43C)[C@@H]12` [Example B60, 4-((1R,3aS,5aR,5bR,7aR,11aS,11bR,13aR,13bR)-5a,5b,8,8,11a-pentamethyl-1-(prop-1-en-2-yl)-3a-((2-(4-propionylpiperazin-1-yl)ethyl)amino)-2,3,3a,4,5,5a,5b,6,7,7a,8,11,11a,11b,12,13,13a,13b-octadecahydro-1H-cyclopenta[a]chrysen-9-yl)benzoic acid] here?
Its EC50 is < 0.1 µM.

Which EC50 does the source give for `C=C(C)[C@@H]1CC[C@]2(NCCNc3ccc(S(C)(=O)=O)cn3)CC[C@]3(C)[C@H](CC[C@@H]4[C@@]5(C)CC=C(c6ccc(C(=O)O)cc6)C(C)(C)[C@@H]5CC[C@]43C)[C@@H]12` [Example 201, 4-((1R,3aS,5aR,5bR,7aR,11aS,11bR,13aR,13bR)-5a,5b,8,8,11a-pentamethyl-3a-(2-(5-(methylsulfonyl)pyridin-2-ylamino)ethylamino)-1-(prop-1-en-2-yl)-2,3,3a,4,5,5a,5b,6,7,7a,8,11,11a,11b,12,13,13a,13b-octadecahydro-1H-cyclopenta[a]chrysen-9-yl)benzoic acid] here?
The EC50 was < 0.1 µM.

Same assay, conditions: Renilla, NL43, luciferase activity in cells infected for 4-5 days with NLRluc recombinants, serial dilutions of inhibitor; numeric values; read-out: EC50

How did the EC50 turn out when `C=C(C)[C@@H]1CC[C@]2(NCCNc3ccccn3)CC[C@]3(C)[C@H](CC[C@@H]4[C@@]5(C)CC=C(c6ccc(C(=O)O)cc6)C(C)(C)[C@@H]5CC[C@]43C)[C@@H]12` [Example 188, 4-((1R,3aS,5aR,5bR,7aR,11aS,11bR,13aR,13bR)-5a,5b,8,8,11a-pentamethyl-1-(prop-1-en-2-yl)-3a-(2-(pyridin-2-ylamino)ethylamino)-2,3,3a,4,5,5a,5b,6,7,7a,8,11,11a,11b,12,13,13a,13b-octadecahydro-1H-cyclopenta[a]chrysen-9-yl)benzoic acid] was run?
The EC50 was 0.001 µM.

From patent publication US20140343000A1 (priority 2011, published 2014)
